The values that follow come from patent publication EP2924021A1, “ANTI-HIV COMPOUND AND PREPARATION METHOD AND USE THEREOF” (priority 2012, dated 2014).

≈ marks a conversion by molar mass, not a printed value. Where “and” joins values, the source holds several entries; their conditions need not be identical. Equal entries are not always repeated. Where two headings read alike, the source gives them in different places.

One data set deals with HIV-1IIIB(H9 cells). In words: Anti-HIV activity in H9 cells. The class given is cell-based. To be noted: for TI: TI(CC50/EC50).
The next data set relates to HIV-1A17. Conditions: HIV-1A17, NVP resistant.
For another data set, the system named is HIV-1IIIB (C8166 cells). The data set is described as follows: Anti-HIV activity in C8166 cells. The format is cell-based. Conditions: for TI: TI(CC50/EC50).
The test system of the next data set is HIVKM018. To be noted: HIVKM018, clinical strain.
Another data set can be described thus: Acute toxicity test. The format is in vivo. Conditions: for safety at a high dose: high dose (10g/kg); for acute toxicity test: in vivo.
Another data set has as its system HIV-1TC-1. To be noted: HIV-1TC-1, clinical strain.
A further data set deals with H9 cells. The data set is described as follows: Cytotoxicity in H9 cells (CC50). The class given is cell-based, human. To be noted: measured twice, average.
The next data set concerns C8166 cells. In words: Cytotoxicity in C8166 cells (CC50). The class given is cell-based, human. To be noted: measured twice, average.
Another data set concerns HIV-2 CBL-20. In words: Anti-HIV-2 activity and cytotoxicity. The format is cell-based.
Data set [1] in a line: Pharmacokinetics: metabolism of 67 to 46, blood concentration and bioavailability. The class given is in vivo. Conditions: after oral gavage of 67 by 100mg/kg.
In the next data set the test system is HIV-2 ROD. The data set is described as follows: Anti-HIV-2 activity and cytotoxicity. The format is cell-based.
[2] abbreviates: H9 cells, HIV-1IIIB, measured twice, average.
Where [3] appears, read: Human immunodeficiency virus 1, C8166 cells, HIV-1IIIB, measured twice, average, read-out: EC50.
Setting [4] is: Human immunodeficiency virus 1, H9 cells, HIV-1IIIB, measured twice, average, read-out: EC50.

Method for HIV-1A17: (§1) The anti-HIV activity was determined by the "Guiding Principles of Anti HIV Drug Unclinical Pharmacodynamics" of SFDA which is tested by technology standard assay according to International Universal Standards and Methods. Where in CC50, EC50 were measured twice and took the average.
Method for HIV-1IIIB (C8166 cells): as §1
Method for HIV-1IIIB(H9 cells): as §1
Method for HIV-1TC-1: as §1
Method for HIVKM018: as §1

The term EC50 denotes the concentration at which the effect is half-maximal. `COc1ccccc1NC(=O)c1c(N)cccc1Oc1ccc([N+](=O)[O-])cc1` [compound 48, 2-amino-N-(2-methoxyphenyl)-6-(4-nitrop-henoxy)benzamide] yielded an EC50 in the data set with HIV-1IIIB(H9 cells) (setting [2]) of 35.87 µg/mL (≈ 94.6 µM).

For the compound `COc1ccccc1NC(=O)c1c(N)cccc1S(=O)(=O)c1ccc([N+](=O)[O-])cc1` [compound 46, 2-amino-N-(2-methoxyphenyl)-6-((4-nitroph-enyl)sulfonyl)benzamide], the figures for the “TI(CC50/EC50)” value with HIV-1A17, in the data set with HIVKM018 and in the data set with HIV-1TC-1 were over 20, over 31.65 and over 1818.18, respectively. Further, the TI is 2081.59 and 2018.59 with HIV-1IIIB (C8166 cells) (C8166 cells); over 303.03 in the data set with HIV-1IIIB(H9 cells) (H9 cells). Further, the “safety at a high dose” value in “Acute toxicity test” is “very safe”. Further, the acute toxicity test result in “Acute toxicity test” was “no abnormal phenomenon occurred”.

As to `COc1ccccc1NC(=O)c1cc(N)ccc1Sc1ccc([N+](=O)[O-])cc1` [compound 24, 5-amino-N-(2-methoxyphenyl)-2-((4-nitrophenyl)thio)benzamide], the EC50 in the data set with HIV-1IIIB (C8166 cells) (setting [3]) is 2.59 µg/mL (≈ 6.55 µM); with HIV-1IIIB(H9 cells) (setting [4]), 2.62 µg/mL (≈ 6.63 µM).

As a reminder, the CC50 is the concentration at which the toxic effect on the cells reaches its halfway point. Low values mean harm at low concentration, high ones better tolerance by the cells. For “5-(dimethylamino)-N-(2-methoxyphenyl)-2-((4-nitrophenyl)thio)benzamide [compound 28]”, the figures for the CC50 in the data set with H9 cells and in the data set on C8166 cells were 77.23 µg/mL and 93.04 µg/mL, respectively. For the same compound, the EC50 with HIV-1IIIB (C8166 cells) (C8166 cells, HIV-1IIIB, measured twice, average) turned out to be 83.84 µg/mL; in the data set on HIV-1IIIB(H9 cells) (setting [2]) it was 98.45 µg/mL.

On to `CNc1cccc(S(=O)(=O)c2ccc([N+](=O)[O-])cc2)c1C(=O)Nc1ccccc1OC` [compound 59, N-(2-methoxyphenyl)-2-(methylamino)-6-((4-nitrophenyl)sulfonyl)benzamide], for which the EC50 was 63.7 µg/mL (≈ 144 µM) with HIV-1IIIB (C8166 cells) (setting [3]) and 123 µg/mL (≈ 278 µM) in the data set with HIV-1IIIB(H9 cells) (setting [4]).

Turning to `COc1ccccc1NC(=O)c1c(N)cccc1S(=O)(=O)c1ccc(C(=O)O)cc1` [compound 77, 4-((3-amino-2-((2-methoxyphenyl)carbamoyl)phenyl)sulfonyl)benzoic acid], the EC50 with HIV-1IIIB (C8166 cells) (setting [3]) and with HIV-1IIIB(H9 cells) (setting [4]) was over 200 µg/mL in each case.

For the compound `Nc1cccc(S(=O)(=O)c2ccc([N+](=O)[O-])cc2)c1C(=O)Nc1ccccc1I` [compound 72, 2-amino-N-(2-iodophenyl)-6-((4-nitrophenyl)sulfonyl)benzamide], the figures for the EC50 with HIV-1IIIB (C8166 cells) (setting [3]) and in the data set with HIV-1IIIB(H9 cells) (setting [4]) were 16.2 µg/mL (≈ 30.9 µM) and 193 µg/mL (≈ 368 µM), respectively.

Consider `COc1ccccc1NC(=O)c1c(NC(=O)CN)cccc1S(=O)(=O)c1ccc([N+](=O)[O-])cc1.Cl.Cl` [compound 67, 2-(2-aminoacetamido)-N-(2-methoxyphenyl)-6-((4-nitrophenyl)sulfonyl)benzamide hydrochloride hydrochloride], for which the TI in the data set with HIV-1IIIB (C8166 cells) (C8166 cells) was determined as 388.04; in the data set with HIV-2 CBL-20 it was 87.82; in the data set on HIV-1IIIB(H9 cells) (H9 cells), 790.58; with HIV-2 ROD, 161.78. In addition, the half-maximal effective concentration (EC50) was found to be 0.43 µg/mL in the data set with HIV-1IIIB (C8166 cells) (setting [3]) and 0.12 µg/mL with HIV-1IIIB(H9 cells) (setting [4]). The “max blood concentration of 46” value in data set [1] is 21.662 µg/mL. Also, the “safety at a high dose” value in the data set “Acute toxicity test” is “very safe”. Besides, the acute toxicity test result in the data set “Acute toxicity test” was “no abnormal phenomenon occurred”.

Regarding `COc1ccccc1NC(=O)c1c(N)cccc1Sc1ccc(C(=O)O)cc1` [compound 76, 4-((3-amino-2-((2-methoxyphenyl)carbamoyl)phenyl)thio)benzoic acid], the EC50 in the data set with HIV-1IIIB (C8166 cells) (setting [3]) turned out to be 92 µg/mL (≈ 233 µM); in the data set with HIV-1IIIB(H9 cells) (setting [4]), 100 µg/mL (≈ 254 µM).

As for `COc1ccccc1NC(=O)c1c(NC(=O)C(N)Cc2ccccc2)cccc1S(=O)(=O)c1ccc([N+](=O)[O-])cc1` (centres unmarked) [compound 83, 2-(2-amino-3-phenylpropanamido)-N-(2-methoxyphenyl)-6-((4-nitrophenyl)sulfonyl)benzamide], the EC50 was determined as 0.45 µg/mL (≈ 0.783 µM) with HIV-1IIIB (C8166 cells) (setting [3]) and 0.15 µg/mL (≈ 0.261 µM) with HIV-1IIIB(H9 cells) (setting [4]).

Consider `Nc1cccc(Sc2ccc([N+](=O)[O-])cc2)c1C(=O)Nc1ccccc1I` [compound 71, 2-amino-N-(2-iodophenyl)-6-((4-nitrophenyl)thio)benzamide], for which the EC50 with HIV-1IIIB (C8166 cells) (setting [3]) is 61.4 µg/mL (≈ 125 µM); in the data set with HIV-1IIIB(H9 cells) (setting [4]), over 200 µg/mL.

Regarding `COc1ccccc1NC(=O)c1cc(C(F)(F)F)ccc1Sc1ccc([N+](=O)[O-])cc1` [compound 22, N-(2-methoxyphenyl)-2-((4-nitrophenyl)thio)-5-(trifluoromethyl)benzamide], the EC50 in the data set on HIV-1IIIB (C8166 cells) (setting [3]) and in the data set on HIV-1IIIB(H9 cells) (setting [4]) was over 200 µg/mL in each case.

As to `COc1ccccc1NC(=O)c1c(N(C)C)cccc1S(=O)(=O)c1ccc([N+](=O)[O-])cc1` [compound 58, 2-(dimethylamino)-N-(2-methoxyphenyl)-6-((4-nitrophenyl)sulfonyl)benzamide], the EC50 with HIV-1IIIB (C8166 cells) (setting [3]) stood at 100 µg/mL (≈ 219 µM); with HIV-1IIIB(H9 cells) (setting [4]), 103 µg/mL (≈ 226 µM).

Take `COc1ccccc1NC(=O)c1c(NCCN)cccc1Sc1ccc([N+](=O)[O-])cc1` [compound 78, 2-((2-aminoethyl)amino)-N-(2-methoxyphenyl)-6-((4-nitrophenyl)thio)benzamide]: the values for the EC50 in the data set on HIV-1IIIB (C8166 cells) (setting [3]) and in the data set with HIV-1IIIB(H9 cells) (setting [4]) were 16.9 µg/mL (≈ 38.6 µM) and 19.9 µg/mL (≈ 45.4 µM), respectively.

For the compound `COc1ccccc1NC(=O)c1c(NCC(N)=O)cccc1Sc1ccc([N+](=O)[O-])cc1` [compound 82, 2-((2-amino-2-oxoethyl)amino)-N-(2-methoxyphenyl)-6-((4-nitrophenyl)thio)benzamide], the EC50 with HIV-1IIIB (C8166 cells) (setting [3]) and in the data set on HIV-1IIIB(H9 cells) (setting [4]) was over 200 µg/mL each time.

On to `COc1ccccc1NC(=O)c1c(NS(=O)(=O)c2ccccc2)cccc1S(=O)(=O)c1ccc([N+](=O)[O-])cc1` [compound 61, N-(2-methoxyphenyl)-2-((4-nitrophenyl)sulfonyl)-6-(phenylsulfonamido)benzamide], for which the figures for the EC50 in the data set on HIV-1IIIB (C8166 cells) (setting [3]) and with HIV-1IIIB(H9 cells) (setting [4]) were 46.9 µg/mL (≈ 82.7 µM) and over 200 µg/mL, respectively.

`COc1ccccc1NC(=O)c1c(NC(=O)C(N)CCCCN)cccc1Sc1ccc([N+](=O)[O-])cc1.Cl` (centres unmarked) [compound 68, 2-(2,6-diaminohexanamido)-N-(2-methoxyphenyl)-6-((4-nitrophenyl)thio)benzamide hydrochloride]: the TI is listed as 122.45 in the data set on HIV-1IIIB (C8166 cells) (C8166 cells) and 37.85 in the data set on HIV-1IIIB(H9 cells) (H9 cells). In addition, the EC50 is 0.94 µg/mL with HIV-1IIIB (C8166 cells) (setting [3]) and 2.38 µg/mL with HIV-1IIIB(H9 cells) (setting [4]).

As for `COc1ccccc1NC(=O)c1c(NCP(=O)(OC(C)C)OC(C)C)cccc1Sc1ccc([N+](=O)[O-])cc1` [compound 65, diisopropyl(((2-((2-methoxyphenyl)carbamoyl)-3-((4-nitro-phenyl)thio)phenyl)amino)methyl)phosphonate], the TI is listed as 0.18 in the data set on HIV-1IIIB (C8166 cells) (C8166 cells) and 0.13 with HIV-1IIIB(H9 cells) (H9 cells). Further, the EC50 with HIV-1IIIB (C8166 cells) (Human immunodeficiency virus 1, C8166) was 106 µg/mL (≈ 184 µM); in the data set on HIV-1IIIB(H9 cells) (Human immunodeficiency virus 1, H9), over 200 µg/mL.
